Data on one molecule can be found in US10800741B2 (ANCUREALL PHARMACEUTICAL (SHANGHAI) CO., LTD., priority 2017, dated 2020).

The structures appear in SMILES notation.

Test [1] concerns the target T1, protein kinases (Homo sapiens, UniProt P00519, E255K).
T1 construct: purchased Discovery X company (USA), KINOMEscan screening platform
In words: KINOMEscan in vitro binding to 468 labeled protein kinases. The settings on record: ABL1(E255K)-phosphorylated, read-out: Test compound/solvent control (%). The procedure:
(§1) Test Example 6 Determination of Binding Affinity of the Present Compounds on Protein Kinases In Vitro
(§2) KINOMEscan screening platform of Discovery X company (USA) was used to identify the binding targets of the present compounds to protein kinases. Compound 66 of the present invention was dissolved in DMSO (Sigma Aldrich) at concentrations of 1000 nM, 10 nM and 1 nM, and then was subjected to in vitro binding reaction with 468 labeled protein kinases. Two samples were taken in parallel for each assay sample.
(§3) The lower the percentage of the test compound to the solvent control, the stronger the binding affinity of the test compound to the protein kinase in vitro.

In test [2] the target is T2, protein kinases (Homo sapiens, UniProt P36888, N841I).
T2 construct: purchased Discovery X company (USA), KINOMEscan screening platform
T2 sequence (P36888 27-993 N841I): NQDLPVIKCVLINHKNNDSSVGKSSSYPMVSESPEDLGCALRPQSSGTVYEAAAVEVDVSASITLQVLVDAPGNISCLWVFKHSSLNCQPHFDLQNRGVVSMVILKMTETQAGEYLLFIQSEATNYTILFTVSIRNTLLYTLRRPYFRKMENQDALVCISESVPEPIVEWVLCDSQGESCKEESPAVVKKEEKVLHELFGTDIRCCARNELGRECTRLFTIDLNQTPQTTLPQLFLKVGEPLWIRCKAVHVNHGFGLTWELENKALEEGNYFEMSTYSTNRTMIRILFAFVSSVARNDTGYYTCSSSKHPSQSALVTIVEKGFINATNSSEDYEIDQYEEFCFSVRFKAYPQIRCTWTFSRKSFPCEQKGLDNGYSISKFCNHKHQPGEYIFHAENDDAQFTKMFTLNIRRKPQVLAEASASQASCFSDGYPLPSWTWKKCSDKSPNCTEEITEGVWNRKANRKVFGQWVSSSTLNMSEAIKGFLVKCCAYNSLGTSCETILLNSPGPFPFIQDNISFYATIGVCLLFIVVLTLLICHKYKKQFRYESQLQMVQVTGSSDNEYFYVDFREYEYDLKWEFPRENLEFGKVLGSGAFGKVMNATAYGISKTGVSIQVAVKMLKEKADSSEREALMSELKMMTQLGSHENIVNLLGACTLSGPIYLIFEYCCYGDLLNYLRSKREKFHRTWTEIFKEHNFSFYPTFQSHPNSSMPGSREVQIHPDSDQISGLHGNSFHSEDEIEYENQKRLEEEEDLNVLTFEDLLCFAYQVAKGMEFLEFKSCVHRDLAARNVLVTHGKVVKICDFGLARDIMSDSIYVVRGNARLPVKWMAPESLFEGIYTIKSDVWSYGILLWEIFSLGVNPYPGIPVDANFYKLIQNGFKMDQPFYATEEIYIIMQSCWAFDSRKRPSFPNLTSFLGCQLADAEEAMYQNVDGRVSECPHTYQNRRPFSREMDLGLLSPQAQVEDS
The test is described as above. The settings on record: FLT3(N841I), read-out: Test compound/solvent control (%). The procedure:
as §1, §2, §3

For test [3], the target named is T3, protein kinases (Homo sapiens, UniProt P07949, M918T).
T3 construct: purchased Discovery X company (USA), KINOMEscan screening platform
T3 sequence (P07949 29-1114 M918T): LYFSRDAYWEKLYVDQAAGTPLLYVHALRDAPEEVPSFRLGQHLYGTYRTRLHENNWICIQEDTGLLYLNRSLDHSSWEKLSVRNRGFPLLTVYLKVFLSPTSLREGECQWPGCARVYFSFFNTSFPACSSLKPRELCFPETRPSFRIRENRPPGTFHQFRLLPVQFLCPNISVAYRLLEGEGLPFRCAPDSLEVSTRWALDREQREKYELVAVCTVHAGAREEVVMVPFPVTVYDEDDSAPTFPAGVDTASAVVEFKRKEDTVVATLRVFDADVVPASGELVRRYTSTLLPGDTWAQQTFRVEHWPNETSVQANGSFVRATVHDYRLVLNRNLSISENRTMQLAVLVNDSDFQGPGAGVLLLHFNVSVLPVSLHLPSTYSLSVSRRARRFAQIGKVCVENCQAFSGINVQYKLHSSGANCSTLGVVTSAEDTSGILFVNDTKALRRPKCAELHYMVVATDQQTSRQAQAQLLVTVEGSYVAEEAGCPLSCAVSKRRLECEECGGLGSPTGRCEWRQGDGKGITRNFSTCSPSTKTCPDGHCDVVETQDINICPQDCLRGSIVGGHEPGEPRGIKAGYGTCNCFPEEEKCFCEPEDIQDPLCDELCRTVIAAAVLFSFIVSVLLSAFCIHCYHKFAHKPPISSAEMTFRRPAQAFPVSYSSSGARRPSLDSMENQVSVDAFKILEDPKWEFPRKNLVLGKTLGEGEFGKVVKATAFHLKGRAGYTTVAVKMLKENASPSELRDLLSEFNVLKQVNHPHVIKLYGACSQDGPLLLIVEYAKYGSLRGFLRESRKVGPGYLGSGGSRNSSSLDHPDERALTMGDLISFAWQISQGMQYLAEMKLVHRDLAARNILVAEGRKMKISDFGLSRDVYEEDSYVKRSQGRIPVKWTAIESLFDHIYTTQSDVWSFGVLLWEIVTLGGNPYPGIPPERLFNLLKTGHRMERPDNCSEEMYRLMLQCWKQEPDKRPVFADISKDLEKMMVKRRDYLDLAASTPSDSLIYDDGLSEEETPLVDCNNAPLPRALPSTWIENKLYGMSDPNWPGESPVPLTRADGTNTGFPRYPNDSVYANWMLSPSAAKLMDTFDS
Described as above. The settings on record: RET(M918T), read-out: Test compound/solvent control (%). How it is done: as §1, §2, §3

For test [4], the target named is T4, protein kinases (Homo sapiens, UniProt Q02763).
T4 construct: purchased Discovery X company (USA), KINOMEscan screening platform
T4 sequence (Q02763 23-1124): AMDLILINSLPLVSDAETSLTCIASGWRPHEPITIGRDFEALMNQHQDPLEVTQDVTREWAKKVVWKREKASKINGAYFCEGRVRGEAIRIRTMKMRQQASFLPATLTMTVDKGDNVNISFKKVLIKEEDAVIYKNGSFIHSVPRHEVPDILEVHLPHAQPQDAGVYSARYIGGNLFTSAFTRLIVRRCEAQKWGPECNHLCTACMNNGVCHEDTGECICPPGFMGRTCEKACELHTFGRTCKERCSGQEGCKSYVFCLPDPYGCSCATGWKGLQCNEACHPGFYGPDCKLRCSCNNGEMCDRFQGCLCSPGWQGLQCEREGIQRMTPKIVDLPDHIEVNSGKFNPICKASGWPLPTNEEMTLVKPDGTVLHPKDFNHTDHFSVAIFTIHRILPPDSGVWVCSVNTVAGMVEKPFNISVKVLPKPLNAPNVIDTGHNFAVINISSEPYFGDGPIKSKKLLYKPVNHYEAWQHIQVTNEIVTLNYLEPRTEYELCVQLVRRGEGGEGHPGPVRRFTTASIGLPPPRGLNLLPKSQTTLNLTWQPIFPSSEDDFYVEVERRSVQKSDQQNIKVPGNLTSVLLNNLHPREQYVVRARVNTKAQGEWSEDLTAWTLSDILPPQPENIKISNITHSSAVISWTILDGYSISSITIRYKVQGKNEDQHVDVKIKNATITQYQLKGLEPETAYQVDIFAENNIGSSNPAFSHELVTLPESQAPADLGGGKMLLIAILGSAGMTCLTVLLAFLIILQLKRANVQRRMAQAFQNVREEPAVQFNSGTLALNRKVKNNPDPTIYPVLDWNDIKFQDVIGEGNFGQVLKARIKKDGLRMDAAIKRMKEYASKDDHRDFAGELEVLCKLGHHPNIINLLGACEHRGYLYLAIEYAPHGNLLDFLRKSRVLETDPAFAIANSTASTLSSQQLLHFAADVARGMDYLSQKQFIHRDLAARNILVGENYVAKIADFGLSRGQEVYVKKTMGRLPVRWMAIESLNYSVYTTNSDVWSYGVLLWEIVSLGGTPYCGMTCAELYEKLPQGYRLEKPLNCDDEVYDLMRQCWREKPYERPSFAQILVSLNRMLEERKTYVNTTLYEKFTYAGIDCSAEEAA
The description is as above. The settings on record: TIE2, read-out: Test compound/solvent control (%). The procedure:
as §1, §2, §3

For test [5], the target named is T5, protein kinases (Homo sapiens, UniProt P22607).
T5 construct: purchased Discovery X company (USA), KINOMEscan screening platform
T5 sequence (P22607 23-806): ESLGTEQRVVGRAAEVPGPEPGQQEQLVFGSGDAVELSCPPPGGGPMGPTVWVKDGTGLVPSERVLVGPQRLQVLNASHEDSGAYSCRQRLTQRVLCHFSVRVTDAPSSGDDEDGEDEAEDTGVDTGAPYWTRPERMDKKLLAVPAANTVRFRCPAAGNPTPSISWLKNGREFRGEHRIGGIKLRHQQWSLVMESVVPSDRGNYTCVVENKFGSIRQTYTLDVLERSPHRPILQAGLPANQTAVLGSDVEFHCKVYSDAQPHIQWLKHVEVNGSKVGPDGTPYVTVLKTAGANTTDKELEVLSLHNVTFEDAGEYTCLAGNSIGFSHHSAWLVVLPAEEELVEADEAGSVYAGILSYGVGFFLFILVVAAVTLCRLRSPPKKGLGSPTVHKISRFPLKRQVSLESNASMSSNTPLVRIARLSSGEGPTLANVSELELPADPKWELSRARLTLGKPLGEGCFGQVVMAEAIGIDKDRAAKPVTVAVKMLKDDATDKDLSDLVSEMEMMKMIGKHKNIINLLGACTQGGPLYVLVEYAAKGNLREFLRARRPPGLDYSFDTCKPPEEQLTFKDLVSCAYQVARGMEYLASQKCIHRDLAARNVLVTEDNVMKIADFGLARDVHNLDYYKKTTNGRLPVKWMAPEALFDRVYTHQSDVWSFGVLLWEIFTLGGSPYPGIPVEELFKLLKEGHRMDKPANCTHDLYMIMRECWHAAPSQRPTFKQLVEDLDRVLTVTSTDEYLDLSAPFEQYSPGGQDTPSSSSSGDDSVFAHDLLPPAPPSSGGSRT
The description is as above. The settings on record: FGFR3, read-out: Test compound/solvent control (%). How it is done:
as §1, §2, §3

Another test relates to AN3-CA. Nature of the test: AN3-CA subcutaneous transplantation tumor model, tumor growth inhibition in vivo. Also noted: species or system Bab/c immunodeficient mice. The settings on record: 5 mg/kg i.p once a day, 17th day after the administration. The source says: Test Example 7 Inhibition of Tumour Cell Growth In Vivo
In order to establish subcutaneous transplantation tumor models of human non-small cell lung cancer and endometrial adenocarcinoma, Bab/c immunodeficient mice were subcutaneously inoculated with NCI-H1581 (ATCC) and AN3-CA (ATCC) cells, respectively.
Experimental animals: 6-week female Bab/c immunodeficient mice (about 20 g in weight). The mice were purchased from Shanghai Sippr-BK Experimental Animal Co., Ltd., raised in Animal Center of Shanghai University of Traditional Chinese Medicine, approved by Ethical Committee of Shanghai University of Traditional Chinese Medicine. The breeding environment was SPF grade. […]
When the tumor volume reached 100˜200 mm^3, the mice were randomly divided according to tumor size. […] The tumor was measured three times a week, and the tumor volume was calculated as: long diameter×short diameter^2/2. […] Efficacy was assessed based on relative tumor growth inhibition value (TGI), and safety was assessed based on animal weight change. […]
Tumor volume data of 17 days after the start of administration were selected for statistical analysis among different groups, and independent sample T test was used to compare whether there were significant differences in relative tumor volume between the administration group and the control group. All data were analyzed using SPSS 18.0. […]

T1 sequence (P00519 whole entry E255K): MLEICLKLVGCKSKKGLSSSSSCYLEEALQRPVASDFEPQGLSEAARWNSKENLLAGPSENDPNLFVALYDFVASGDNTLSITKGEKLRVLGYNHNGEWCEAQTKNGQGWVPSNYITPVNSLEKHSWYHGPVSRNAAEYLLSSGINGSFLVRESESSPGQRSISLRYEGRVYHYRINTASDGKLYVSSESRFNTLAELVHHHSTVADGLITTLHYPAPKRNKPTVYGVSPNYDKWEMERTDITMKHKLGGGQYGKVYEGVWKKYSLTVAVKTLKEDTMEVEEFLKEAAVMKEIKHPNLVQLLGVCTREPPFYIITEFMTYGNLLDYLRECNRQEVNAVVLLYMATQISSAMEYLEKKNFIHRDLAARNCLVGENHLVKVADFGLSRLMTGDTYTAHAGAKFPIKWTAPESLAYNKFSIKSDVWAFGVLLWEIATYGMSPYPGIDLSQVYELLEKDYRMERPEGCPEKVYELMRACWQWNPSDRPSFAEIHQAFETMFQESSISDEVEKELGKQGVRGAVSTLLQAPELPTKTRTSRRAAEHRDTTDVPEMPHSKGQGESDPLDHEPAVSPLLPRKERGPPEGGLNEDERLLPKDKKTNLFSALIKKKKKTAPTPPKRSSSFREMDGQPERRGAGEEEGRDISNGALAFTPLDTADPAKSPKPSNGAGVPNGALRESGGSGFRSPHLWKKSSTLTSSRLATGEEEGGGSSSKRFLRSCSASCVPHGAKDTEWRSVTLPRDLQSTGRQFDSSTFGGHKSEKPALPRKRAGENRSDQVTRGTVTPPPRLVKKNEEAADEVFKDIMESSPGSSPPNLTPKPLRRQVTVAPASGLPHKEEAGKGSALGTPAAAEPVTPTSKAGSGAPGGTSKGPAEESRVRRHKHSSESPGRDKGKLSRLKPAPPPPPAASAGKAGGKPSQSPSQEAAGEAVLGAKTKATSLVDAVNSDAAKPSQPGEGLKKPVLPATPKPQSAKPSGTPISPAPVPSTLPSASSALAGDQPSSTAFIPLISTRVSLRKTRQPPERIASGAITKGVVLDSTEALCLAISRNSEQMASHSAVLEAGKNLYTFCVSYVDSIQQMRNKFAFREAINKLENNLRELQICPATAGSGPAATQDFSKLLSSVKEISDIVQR

For `COCCOc1cc2nccc(Oc3ccc(NC(=O)Nc4cc(C(C)(C)C)n[nH]4)c(Cl)c3)c2cc1NC(C)=O` [Compound 66, N-[4-{4-[3-(5-tert-butyl-2H-pyrazol-3-yl)-ureido]-3-chloro-phenoxy}-7-(2-methoxy-ethoxy)-quinolin-6-yl]-acetamide], the remaining binding at 0.001 µM at protein kinases [1] (1 nM) came to 50%; on protein kinases [2] (1 nM) it was 88%; on protein kinases [3] (1 nM) it was 78%; at protein kinases [4] (1 nM), 59%; on protein kinases [5] (1 nM), 100%. For the same molecule, the remaining binding at 0.01 µM came to 7.6% on protein kinases [1] (10 nM); 17% on protein kinases [2] (10 nM); 8.5% on protein kinases [3] (10 nM); 3.8% on protein kinases [4] (10 nM); 82% at protein kinases [5] (10 nM). In addition, the remaining binding at 1 µM came out at 0.1% at protein kinases [1] (1000 nM); 0.25% on protein kinases [2] (1000 nM); 0% on protein kinases [3] (1000 nM); 0.95% at protein kinases [4] (1000 nM); 0.2% on protein kinases [5] (1000 nM). Moreover, in the test on AN3-CA, the “T/C (%)” value is recorded as 1.37%. Besides, the “TGI (%)” value in the test on AN3-CA stood at 98.63%.
